Laboratory results from patent US20020006406A1, “METHOD FOR THE TREATMENT OF STAPHYLOCOCCAL DISEASE” (priority 1997, published 2002).
Where two headings read alike, the source gives them in different places. Marks after values point to notes of the source that are not given here.

Columns and labels:
S. aureus [1] = test: MIC by standard broth microdilution; type: cell-based
From the text: Approved Standard M7-A3. Methods for dilution antimicrobial susceptibility tests for bacteria that grow aerobically—Third edition. National Committee for Clinical Laboratory Standards, Villanova, Pa.; National Committee for Clinical Laboratory Standards, 1992. Tentative Guideline M26-T. Methods for determining bactericidal activity of antimicrobial agents. National Committee for Clinical Laboratory Standards, Villanova, Pa.].

S. aureus [2] = test: MIC by broth microdilution with 0.1% BSA in the diluent; type: cell-based
Protocol: Lysostaphin sticks to plastic materials and can be lost from solution; this can affect its apparent activity. Therefore, some MIC determinations were also performed with additions of 0.1% bovine serum album (BSA) to the diluent. Otherwise, the method was identical to that cited above. […] Since this observation is related to the affinity of lysostaphin for plastic materials, it is to be expected that, in general, staphylococcal strains are more susceptible to lysostaphin than was observed previously.

[3] = system: methicillin-resistant clinical isolates of S. aureus and 27619VR; test: Time-kill experiment, four S. aureus strains (FIG. 2); type: cell-based; settings: 1 μg/ml; three methicillin-resistant clinical isolates and 27619VR; 2×10^6 to 9×10^7 CFU/ml
Protocol: In another experiment (FIG. 2), three different methicillin-resistant clinical isolates of S. aureus, and a fourth strain, 27619VR, a laboratory-derived ‘VISA’ strain (i.e., with intermediate resistance to vancomycin) derived from a methicillin-resistant clinical isolate, were inoculated into cation-adjusted Mueller-Hinton broth (Becton Dickinson) and grown at 37° C. overnight. They were then diluted into fresh broth and incubated at 37° C. with gentle shaking until they were estimated to have reached the logarithmic stage of growth. […] Lysostaphin was added to each culture at the concentration of 1 μg/ml. At intervals, samples were withdrawn, serially diluted in 0.9% NaCl, and plated by spreading on Mueller-Hinton agar (Becton Dickinson). The agar plates were incubated for 48 hours at 37° C. and the colonies were counted manually.

MRSA 27619 = test: Experimental aortic valve endocarditis in rabbits, MRSA 27619; type: in vivo, S. aureus; settings: for Mean log10CFU/gram of vegetation / Number of sterile vegetations/total animals treated: three days
Protocol: (§1) Aortic valve endocarditis was established in New Zealand white rabbits weighing approximately 3 kg. Rabbits were anesthetized and the right carotid artery surgically exposed and cannulated with a polyethylene catheter which was advanced into the left ventricle of the heart. After at least 24 h, the rabbits were infected intravenously with 10^6-10^7 cells of a methicillin-resistant S. aureus strain (MRSA 27619). Twenty-four hours later, the animals were randomly assigned to different treatment groups; untreated control (9 rabbits); positive control, vancomycin 30 mg/kg twice daily (15); lysostaphin 5 mg/kg three times daily (11); lysostaphin 5 mg/kg once daily (10); lysostaphin 5 mg/kg once daily+vancomycin 30 mg/kg twice daily (11).
(§2) All treatments were intravenous and were carried out for three days. The state of health of the rabbits was assessed at intervals. The rabbits were sacrificed 18 h after the last treatment. Aortic vegetations were removed and weighed and processed to determine the number of viable bacteria, expressed as log,10CFU/gram. The limit of detection is 10^2 CFU/gram (log10CFU/gram=2.0). The mean titers of bacteria per gram were compared by one-way analysis of variance. The Student-Newman-Keuls test was used to adjust for multiple comparisons.
Comparison of the rates of sterilization were made using Fisher's exact test. Statistical significance was defined as a P value of ≦0.05.
Kidney abscesses were also assessed for the presence of staphylococci.

[4] = system: methicillin-resistant VISA strain of S. aureus; test: Experimental endocarditis in rabbits, methicillin-resistant VISA strain; type: in vivo
Protocol: as §1, with “(11). Any rabbits whose infection was not confirmed by pre-treatment blood culture were eliminated.” for “(11).”
as §2
Strains that are both methicillin-resistant and resistant to vancomycin are a newly emerging problem. A variant strain of this type was selected after cycles of growth in glycopeptide-containing medium. The vancomycin MIC for the resulting strain was 8 μg/ml, as reported also for naturally occurring VISA strains isolated from patients in the U.S. and Japan. (Centers for Disease Control and Prevention, Morbidity and Mortality Weekly Report 1997; 46:813-815). Staphylococcal isolates are considered to be susceptible to vancomycin if the MIC is less than or equal to 4 μg/ml and to be completely resistant if the MIC is greater than or equal to 32 μg/ml (National Committee for Clinical Laboratory Standards, 1993. Approved Standard M2-A5. Performance standards for antimicrobial disk susceptibility tests—Fifth edition. National Committee for Clinical Laboratory Standards, Villanova, Pa.)

[5] = intraperitoneal infection, cited from earlier work
[6] = system: Giorgio strain of S. aureus; settings: mice, cited from earlier work
[7] = strain 404 (clinical isolate, methicillin-resistant)
[8] = strain 27287 (clinical isolate, methicillin-resistant)
[9] = strain 27295 (clinical isolate, methicillin-resistant)
[10] = strain 27619 (clinical isolate, methicillin-resistant)

## lysostaphin: recombinant lysostaphin enzyme from fermentation of B. sphaericus; majority component lacks the two N-terminal amino acids of the published sequence
S. aureus [1]; clinical isolates of S. aureus (summary of Table 1a)
  minimal inhibitory concentrations (MIC): ≤ 1.0 µg/mL
S. aureus [1]; strain 401 (clinical isolate)
  MIC Without BSA: 0.5 µg/mL
S. aureus [1]; strain 402 (clinical isolate)
  MIC: 0.5 µg/mL
S. aureus [1]; [7]
  MIC: 0.5 µg/mL
  MIC Without BSA: 0.5 µg/mL
S. aureus [1]; strain 412
  MIC: 0.25 µg/mL
S. aureus [1]; strain 414
  MIC: 0.25 µg/mL
  MIC Without BSA: 0.25 µg/mL
S. aureus [1]; strain 450M (clinical isolate, methicillin-resistant)
  MIC: 0.25 µg/mL
S. aureus [1]; strain 1573 (clinical isolate, methicillin-resistant)
  MIC: 0.5 µg/mL
S. aureus [1]; strain 27222 (clinical isolate, methicillin-resistant)
  MIC: 0.25 µg/mL
S. aureus [1]; strain 27286 (clinical isolate, methicillin-resistant)
  MIC: 0.25 µg/mL
S. aureus [1]; [8]
  MIC: 0.25 µg/mL
  MIC Without BSA: 0.25 µg/mL
S. aureus [1]; [9]
  MIC: 0.13 µg/mL
  MIC Without BSA: 0.13 µg/mL
S. aureus [1]; [10]
  MIC: 0.25 µg/mL
  MIC Without BSA: 0.25 µg/mL
S. aureus [1]; strain 27619VR (laboratory-derived, intermediate susceptibility to vancomycin)
  MIC: 0.5 µg/mL
S. aureus [1]; strain 27621 (clinical isolate, methicillin-resistant)
  MIC: 0.06 µg/mL
S. aureus [1]; strain 27622 (clinical isolate, methicillin-resistant)
  MIC: 0.06 µg/mL
S. aureus [1]; strain 27698 (clinical isolate, methicillin-resistant)
  MIC: 0.25 µg/mL
S. aureus [1]; strain 29293 (clinical isolate, methicillin-resistant)
  MIC: 0.06 µg/mL
S. aureus [1]; strain COL (clinical isolate, methicillin-resistant)
  MIC: 0.13 µg/mL
S. aureus [1]; strain HP5827 (clinical isolate, methicillin-resistant, VISA)
  MIC: 0.5 µg/mL
S. aureus [1]; strain HP5836 (clinical isolate, methicillin-resistant, VISA)
  MIC: 0.5 µg/mL
S. aureus [2]; strain 401 (clinical isolate)
  MIC With BSA: 0.015 µg/mL
S. aureus [2]; [7]
  MIC With BSA: 0.008 µg/mL
S. aureus [2]; strain 414
  MIC With BSA: 0.03 µg/mL
S. aureus [2]; strain 417
  MIC With BSA: 0.03 µg/mL
S. aureus [2]; strain 25756 (clinical isolate, methicillin-resistant)
  MIC With BSA: 0.008 µg/mL
S. aureus [2]; [8]
  MIC With BSA: 0.03 µg/mL
S. aureus [2]; [9]
  MIC With BSA: ≦0.004 μg/ml
S. aureus [2]; [10]
  MIC With BSA: 0.008 µg/mL
[3]
  killing of strains in time-kill experiment: rapidly killed
MRSA 27619; 5 mg/kg once daily iv
  Mean log10CFU/gram of vegetation: 7.08 log10CFU/gram
  Number of sterile vegetations/total animals treated: 2/10
MRSA 27619; 5 mg/kg three times daily iv
  Mean log10CFU/gram of vegetation: 2.26 log10CFU/gram
  Number of sterile vegetations/total animals treated: 10/11^c
MRSA 27619; thrice-daily regimen (5 mg/kg), controls just under 10^8 CFU/gram
  bacterial load in kidney abscesses: ~10^2 CFU/gram of tissue
MRSA 27619; thrice-daily regimen, early in the treatment cycle
  state of health of the rabbits: all in good health
[4]; 5 mg/kg three times daily
  CFU/g vegetation (expressed as log10 of the mean): 6.29 log10 CFU/g
  sterile/total vegetations: 2/10
[4]; 15 mg/kg twice daily
  CFU/g vegetation (expressed as log10 of the mean): 4.0** log10 CFU/g
  sterile/total vegetations: 0/5
[5]; single or multiple subcutaneous administrations, total approximately 1 mg/kg
  survival of treated mice: 50%
[5]; total dosage of 6 mg/kg
  mice protected: 100%
[6]; intravenously within 6 hours after infection, dosages of 1.5 mg/kg or higher
  numbers of bacteria in the kidneys: significant reductions
[6]; treatment withheld for 24 hours or longer, dosages of 125 or 250 mg/kg
  numbers of bacteria in the kidneys: only modest reductions
